In patent US20260041637A1, “VESICLES BASED ON GLUCOSE-DERIVED SURFACTANTS AND PHYTOSTEROLS” (NANOMOL TECHNOLOGIES, S.L., priority 2022, published 2026):

Tests used:
[1] = Antioxidant capacity by 2,2-diphenyl-1-picrylhydrazyl (DPPH) assay; assay type: biochemical; conditions: molar ratio DPPH:TCP 1:0.3, 30 minutes in the dark, 517 nm; mean ± s.d. of two independent experiments
Description: DPPH assay is a well-known and established method to measure antioxidant capacity of a molecule. […] When DPPH is in its oxidated form presents a violet color that changes to yellow/white when is reduced. This color change can be followed using UV-Vis spectroscopy. The assay was carried out in ethanol always maintaining a molar ratio DPPH: TCP of 1:0.3. In order to have 3 mL of final volume, DPPH was diluted in ethanol to have a final concentration of 63.4 μM. Free TCP and TCP DELOS-NVs were diluted to have a final concentration of 19 µM of TCP. Each solution was then mixed and kept at room temperature for 30 minutes in the dark. The absorbance of the solution was measured at 517 nm using a Thermo Scientific™ Evolution™ 201/220 UV-Visible spectrophotometer (Thermo Scientific). The percentage of TCP antioxidant capacity was calculated using the Equation 3, where Abscontrol is the absorbance at 517 nm of DPPH in ethanol and Abssample is the absorbance at 517 nm of the sample prepared as described (free TCP or TCP DELOS-NVs with DPPH).
The antioxidant capacity of TCP was evaluated once it was integrated in the NVs to verify that the molecule was still active after the encapsulation. The antioxidant capacity was measured by the 2,2-diphenyl-1-picrylhydrazyl (DPPH) assay. DPPH is a stable free radical that can be reduced in the presence of hydrogen-donating antioxidants such as TCP. […]

[2] = Entrapment efficiency (EE) by UV-Vis spectroscopy; assay type: physicochemical
Description: Entrapment efficiency (EE) of each active was determined by UV-Vis absorbance using an UV-Vis spectrophotometer (Thermo Scientific™ Evolution™ 201 UV-Visible Spectrophotometers, Thermo Scientific). For lipophilic actives (7-DHC, CBD, TCP, DiD and Dil) Vs membrane was dissociated to release the active by diluting the sample in ethanol at 80% (v/v) until a value of absorption below 1 and inside the calibration curve obtained. The concentration of each active was determined using a calibration curve, using the same media than the corresponding Vs system. The active was quantified before and after filtering process and both values were used to calculate the EE using Equation 1 (as described herein). As the lipophilic molecules are not soluble in aqueous media, it was considered that the filtered sample contained only the integrated active, since all the precipitated and non-integrated active should remain in the filter.
A different protocol was followed for hydrophilic actives (NCA, AG and MTX), in which, after the Vs filtration process, another step was applied to separate the non-integrated active. For NCA and AG, an ultracentrifugation step of the filtered sample was performed (6h, 4° C., 600000g) (Sorvall Discovery M150 Micro-Ultracentrifuge, Thermo Scientific). […]

[3] = Entrapment efficiency (EE) by fluorescence spectroscopy (proteins); assay type: physicochemical
Description: iii) Entrapment efficiency (EE) by fluorescence spectroscopy: Entrapment efficiency (EE) of both proteins was determined by fluorescence spectroscopy using a Varian Cary Eclipse (Agilent Technolo-gies, Santa Clara, USA). In both cases, the separation of the non-integrated protein from that integrated in Vs was done by TFF (KrosFlo® Research 11i TFF diafiltration system (KR2i), with a mPES filter hollow column cut-off 300 KDa (C04-E100-05-N, Spectrum Labs, SL). Then, the permeate fraction was recovered and analyzed by fluorescence, exciting the proteins at 278 nm. The concentration was calculated using a calibration curve using the same media of the corresponding Vs system. The entrapment efficiency was then calculated using Equation 2, as described herein.

Compound: Cc1c(C)c2c(c(C)c1O)CCC(C)(CCCC(C)CCCC(C)CCCC(C)C)O2 (racemic) [Free TCP, DL-alpha-Tocopherol]
- Antioxidant capacity (%) [1]: 60 ± 9%

Compound: CN(Cc1cnc2nc(N)nc(N)c2n1)c1ccc(C(=O)N[C@@H](CCC(=O)O)C(=O)O)cc1 [MTX, Methotrexate]
- EE [%] ([2]; active-loaded Sit:LGL-p:DC-Chol (0.8:1:0.2) Vs): 88%

Compound: b-FGF: basic fibroblast growth factor, small protein, encapsulated active
- EE [%] ([3]; protein (b-FGF) in negatively charged Sit:LGC (1:1) Vs): > 99%

Compound: C=C(C)[C@@H]1CCC(C)=C[C@H]1c1c(O)cc(CCCCC)cc1O [CBD, cannabidiol]
- EE [%] ([2]; active-loaded Sit:LGC (1:1) and Sit:LGL:LGC (1:0.8:0.2) Vs): 22-33%

Compound: HGH: Human growth hormone, small protein, encapsulated active
- EE [%] ([3]; protein (HGH) in Sit:LGL-p:DC-Chol (0.8:1:0.2) Vs): over 99%
